These results are taken from PMC5218480 (PLoS ONE, 2017).

This assay deals with MV-4-11 cells. The experiment in a line: Gene expression microarray analysis (Affymetrix PrimeView) and GSEA. More on the design: RFU PODN (11730768_x_at) / Fold change /veh PODN (11730768_x_at) / RFU LINC00158 (11744669_a_at) / Fold change /veh LINC00158 (11744669_a_at) / RFU DUSP10 (11751237_a_at) / Fold change /veh DUSP10 (11751237_a_at) / RFU ID3 (11757404_x_at) / Fold change /veh ID3 (11757404_x_at) / RFU PLEKHG5 (11737974_s_at) / Fold change /veh PLEKHG5 (11737974_s_at) / RFU LRRC4B (11730491_at) / Fold change /veh LRRC4B (11730491_at) / RFU GIMAP4 (11747438_a_at) / Fold change /veh GIMAP4 (11747438_a_at) / RFU KRT8 (11758183_x_at) / Fold change /veh KRT8 (11758183_x_at) / RFU CNN1 (11734310_a_at) / Fold change /veh CNN1 (11734310_a_at) / RFU VPS37D (11726825_at) / Fold change /veh VPS37D (11726825_at) / RFU C10orf10 (11716522_x_at) / Fold change /veh C10orf10 (11716522_x_at) / RFU KIR2DL2 /// KIR2DL4 /// KIR2DL5A /// KIR2DL5B /// KIR2DS1 /// KIR2DS2 /// KIR2DS3 /// KIR2DS4 /// KIR3DL3 /// KIR3DL3 /// KIR3DS1 (11738374_at) / Fold change /veh KIR2DL2 /// KIR2DL4 /// KIR2DL5A /// KIR2DL5B /// KIR2DS1 /// KIR2DS2 /// KIR2DS3 /// KIR2DS4 /// KIR3DL3 /// KIR3DL3 /// KIR3DS1 (11738374_at) / RFU C1QL1 (11718748_at) / Fold change /veh C1QL1 (11718748_at) / RFU TMPRSS4 (11747572_a_at) / Fold change /veh TMPRSS4 (11747572_a_at) / RFU HAMP (11756126_x_at) / Fold change /veh HAMP (11756126_x_at) / RFU RNFT2 (11725882_a_at) / Fold change /veh RNFT2 (11725882_a_at) / RFU NR4A2 (11747474_a_at) / Fold change /veh NR4A2 (11747474_a_at) / RFU ABCC12 (11746883_a_at) / Fold change /veh ABCC12 (11746883_a_at) / RFU TMEM136 (11760407_x_at) / Fold change /veh TMEM136 (11760407_x_at) / RFU CLDN22 /// WWC2 (11732394_at) / Fold change /veh CLDN22 /// WWC2 (11732394_at) / RFU HLA-DPB1 (11760878_x_at) / Fold change /veh HLA-DPB1 (11760878_x_at) / RFU SPINT1 (11716480_a_at) / Fold change /veh SPINT1 (11716480_a_at) / RFU GAP43 (11754022_s_at) / Fold change /veh GAP43 (11754022_s_at) / RFU A4GNT (11735810_at) / Fold change /veh A4GNT (11735810_at) / RFU PRB3 (11715151_x_at) / Fold change /veh PRB3 (11715151_x_at) / RFU TUBB4B (11761932_at) / Fold change /veh TUBB4B (11761932_at) / RFU CAPN14 (11732068_a_at) / Fold change /veh CAPN14 (11732068_a_at) / RFU TMCC2 (11721928_a_at) / Fold change /veh TMCC2 (11721928_a_at) / RFU IRGQ (11745062_a_at) / Fold change /veh IRGQ (11745062_a_at) / RFU FAM174B (11720279_a_at) / Fold change /veh FAM174B (11720279_a_at) / RFU TMPRSS4 (11748680_a_at) / Fold change /veh TMPRSS4 (11748680_a_at) / RFU FAM212B (11763350_a_at) / Fold change /veh FAM212B (11763350_a_at) / RFU PLEKHG5 (11743358_a_at) / Fold change /veh PLEKHG5 (11743358_a_at) / RFU ZSCAN30 (11745921_a_at) / Fold change /veh ZSCAN30 (11745921_a_at) / RFU CMKLR1 (11741424_a_at) / Fold change /veh CMKLR1 (11741424_a_at) / RFU LOC101060620 /// MAPK8IP1 (11723275_at) / Fold change /veh LOC101060620 /// MAPK8IP1 (11723275_at) / RFU SPTSSB (11747773_x_at) / Fold change /veh SPTSSB (11747773_x_at) / RFU PRSS12 (11739890_at) / Fold change /veh PRSS12 (11739890_at) / RFU BIN1 (11741810_x_at) / Fold change /veh BIN1 (11741810_x_at) / RFU WNT11 (11732464_a_at) / Fold change /veh WNT11 (11732464_a_at) / RFU C10orf10 (11716521_a_at) / Fold change /veh C10orf10 (11716521_a_at) / RFU C5orf56 (11738089_at) / Fold change /veh C5orf56 (11738089_at) / RFU CYB561 (11721691_x_at) / Fold change /veh CYB561 (11721691_x_at) / RFU ANKRD19P (11752326_a_at) / Fold change /veh ANKRD19P (11752326_a_at) / RFU OR2T12 /// OR2T33 /// OR2T8 (11738714_s_at) / Fold change /veh OR2T12 /// OR2T33 /// OR2T8 (11738714_s_at) / RFU VCAN (11748164_a_at) / Fold change /veh VCAN (11748164_a_at) / RFU JSRP1 (11732532_at) / Fold change /veh JSRP1 (11732532_at) / RFU KRTAP10-11 (11738290_x_at) / Fold change /veh KRTAP10-11 (11738290_x_at) / RFU MYO3A (11730013_a_at) / Fold change /veh MYO3A (11730013_a_at) / RFU EBF3 (11725865_a_at) / Fold change /veh EBF3 (11725865_a_at) / RFU CAMK2N1 (11719241_x_at) / Fold change /veh CAMK2N1 (11719241_x_at) / RFU C5orf56 (11738088_a_at) / Fold change /veh C5orf56 (11738088_a_at) / RFU OLFML3 (11715873_a_at) / Fold change /veh OLFML3 (11715873_a_at) / RFU LOC100653217 /// NTM (11731650_a_at) / Fold change /veh LOC100653217 /// NTM (11731650_a_at) / RFU MAPK11 (11762145_a_at) / Fold change /veh MAPK11 (11762145_a_at) / RFU FIZ1 (11724087_x_at) / Fold change /veh FIZ1 (11724087_x_at) / RFU OASL (11726364_x_at) / Fold change /veh OASL (11726364_x_at) / RFU SOX15 (11748057_x_at) / Fold change /veh SOX15 (11748057_x_at) / RFU CD79A (11719716_a_at) / Fold change /veh CD79A (11719716_a_at) / RFU HIST1H1D (11736915_at) / Fold change /veh HIST1H1D (11736915_at) / RFU CASKIN2 (11723855_a_at) / Fold change /veh CASKIN2 (11723855_a_at) / RFU LOC730098 (11760151_x_at) / Fold change /veh LOC730098 (11760151_x_at) / RFU OR4N2 (11742367_at) / Fold change /veh OR4N2 (11742367_at) / RFU PRRT2 (11749266_a_at) / Fold change /veh PRRT2 (11749266_a_at) / RFU SNX32 (11753110_a_at) / Fold change /veh SNX32 (11753110_a_at) / RFU CDHR5 (11726645_a_at) / Fold change /veh CDHR5 (11726645_a_at) / RFU RCAN1 (11760418_a_at) / Fold change /veh RCAN1 (11760418_a_at) / RFU FAM167A (11723789_a_at) / Fold change /veh FAM167A (11723789_a_at) / RFU FAM26E (11764081_at) / Fold change /veh FAM26E (11764081_at) / RFU ISYNA1 (11749810_s_at) / Fold change /veh ISYNA1 (11749810_s_at) / RFU ACY1 (11761880_at) / Fold change /veh ACY1 (11761880_at) / RFU 11764098_at / Fold change /veh 11764098_at / RFU SAMD14 (11745864_x_at) / Fold change /veh SAMD14 (11745864_x_at) / RFU NPB (11741838_a_at) / Fold change /veh NPB (11741838_a_at) / RFU TMPRSS6 (11731388_a_at) / Fold change /veh TMPRSS6 (11731388_a_at) / RFU KRTAP10-2 (11738614_at) / Fold change /veh KRTAP10-2 (11738614_at) / RFU ARHGAP8 /// PRR5-ARHGAP8 (11727945_x_at) / Fold change /veh ARHGAP8 /// PRR5-ARHGAP8 (11727945_x_at) / RFU KRTAP5-7 /// NADSYN1 (11734609_at) / Fold change /veh KRTAP5-7 /// NADSYN1 (11734609_at) / RFU RASL12 (11751679_a_at) / Fold change /veh RASL12 (11751679_a_at) / RFU CDKN2B (11736163_a_at) / Fold change /veh CDKN2B (11736163_a_at) / RFU PRF1 (11729649_at) / Fold change /veh PRF1 (11729649_at) / RFU, ZNF638 /// ZNF638-IT1 / Fold change vs veh, ZNF638 /// ZNF638-IT1 / RFU, PANK3 / Fold change vs veh, PANK3 / RFU, SH3YL1 / Fold change vs veh, SH3YL1 / RFU, ZEB2 / Fold change vs veh, ZEB2 / RFU, NRIP1 / Fold change vs veh, NRIP1 / RFU, PTTG1IP / Fold change vs veh, PTTG1IP / RFU, CAPN2 / Fold change vs veh, CAPN2 / RFU, MED14 / Fold change vs veh, MED14 / RFU, SNORA58 / Fold change vs veh, SNORA58 / RFU, C1orf63 / Fold change vs veh, C1orf63 / RFU, LRRFIP1 / Fold change vs veh, LRRFIP1 / RFU, NDUFAF7 / Fold change vs veh, NDUFAF7 / RFU, SLC12A2 / Fold change vs veh, SLC12A2 / RFU, IBTK / Fold change vs veh, IBTK / RFU, ESF1 / Fold change vs veh, ESF1 / Fold change vs veh, TMEM50B / RFU, TAOK1 / Fold change vs veh, TAOK1 / RFU, ACBD3 / Fold change vs veh, ACBD3 / RFU, TMA16 / Fold change vs veh, TMA16 / RFU, RWDD3 / Fold change vs veh, RWDD3 / RFU, BCAT1 / Fold change vs veh, BCAT1 / RFU, EDEM3 / Fold change vs veh, EDEM3 / RFU, TMEM33 / Fold change vs veh, TMEM33 / RFU, WDR75 / Fold change vs veh, WDR75 / RFU, AHCTF1 / Fold change vs veh, AHCTF1 / RFU, TFRC / Fold change vs veh, TFRC / RFU, ZDHHC17 / Fold change vs veh, ZDHHC17 / RFU, NOM1 / Fold change vs veh, NOM1 / RFU, ARL8B / Fold change vs veh, ARL8B / RFU, ZBTB11 / Fold change vs veh, ZBTB11 / RFU, TAMM41 / Fold change vs veh, TAMM41 / RFU, KIAA1704 /// LOC100996395 / Fold change vs veh, KIAA1704 /// LOC100996395 / RFU, ING1 / Fold change vs veh, ING1 / RFU, TRMT61B / Fold change vs veh, TRMT61B / RFU, FUBP3 / Fold change vs veh, FUBP3 / RFU, TP53 / Fold change vs veh, TP53 / RFU, TNKS2 / Fold change vs veh, TNKS2 / RFU, ZFP14 / Fold change vs veh, ZFP14 / RFU, ACTR2 / Fold change vs veh, ACTR2 / RFU, PPP3R1 / Fold change vs veh, PPP3R1 / RFU, PIK3R1 / Fold change vs veh, PIK3R1 / RFU, HNRNPA1 / Fold change vs veh, HNRNPA1 / RFU, RNF170 / Fold change vs veh, RNF170 / RFU, ZNF28 / Fold change vs veh, ZNF28 / RFU, RNGTT / Fold change vs veh, RNGTT / RFU, OGT / Fold change vs veh, OGT / RFU, BRD1 / Fold change vs veh, BRD1 / RFU, MARS / Fold change vs veh, MARS / RFU, ZNF655 / Fold change vs veh, ZNF655 / RFU, FAHD1 / Fold change vs veh, FAHD1 / RFU, BDP1 / Fold change vs veh, BDP1 / RFU, LRRCC1 / Fold change vs veh, LRRCC1 / RFU, ARID1A / Fold change vs veh, ARID1A / RFU, ZNF146 / Fold change vs veh, ZNF146 / RFU, ZNF330 / Fold change vs veh, ZNF330 / RFU, GPN3 / Fold change vs veh, GPN3 / RFU, C9orf123 / Fold change vs veh, C9orf123 / RFU, N4BP2L2 / Fold change vs veh, N4BP2L2 / RFU, ARFIP1 / Fold change vs veh, ARFIP1 / RFU, FAM179B / Fold change vs veh, FAM179B / RFU, BCL10 / Fold change vs veh, BCL10 / RFU, UHRF1BP1L / Fold change vs veh, UHRF1BP1L / RFU, BET1 / Fold change vs veh, BET1 / RFU, CNOT2 / Fold change vs veh, CNOT2 / RFU, ZNF268 / Fold change vs veh, ZNF268 / Fold change vs veh, ZNF507 / RFU, DGCR2 / Fold change vs veh, DGCR2 / RFU, WDSUB1 / Fold change vs veh, WDSUB1 / Fold change vs veh, HSP90B1 /// MIR3652 / RFU, ADSS / Fold change vs veh, ADSS / RFU, GK / Fold change vs veh, GK / RFU, ZNF148 / Fold change vs veh, ZNF148 / RFU, TAF9 / Fold change vs veh, TAF9 / RFU, SLC1A5 / Fold change vs veh, SLC1A5 / RFU, SLMO2 / Fold change vs veh, SLMO2 / RFU, ABCC4 / Fold change vs veh, ABCC4 / RFU, LOC101060439 /// RAP1B / Fold change vs veh, LOC101060439 /// RAP1B / RFU, RFX7 / Fold change vs veh, RFX7 / RFU, GTPBP10 / Fold change vs veh, GTPBP10 / RFU, CNEP1R1 / Fold change vs veh, CNEP1R1 / RFU, BIVM-ERCC5 /// ERCC5 / Fold change vs veh, BIVM-ERCC5 /// ERCC5 / RFU, ILF3 / Fold change vs veh, ILF3 / RFU 11762660_at / Fold change /veh 11762660_at / RFU VCAN (11757783_s_at) / Fold change /veh VCAN (11757783_s_at) / RFU DDX43 (11728927_at) / Fold change /veh DDX43 (11728927_at) / RFU KRT8 (11758188_x_at) / Fold change /veh KRT8 (11758188_x_at) / RFU NKD1 (11759106_at) / Fold change /veh NKD1 (11759106_at) / RFU SRD5A1 (11742802_a_at) / Fold change /veh SRD5A1 (11742802_a_at) / RFU TPSAB1 /// TPSB2 (11721975_s_at) / Fold change /veh TPSAB1 /// TPSB2 (11721975_s_at) / RFU GSTM3 (11746129_a_at) / Fold change /veh GSTM3 (11746129_a_at) / RFU IL23R (11737362_x_at) / Fold change /veh IL23R (11737362_x_at) / RFU TMEM51 (11727254_a_at) / Fold change /veh TMEM51 (11727254_a_at) / RFU PIWIL2 (11732686_x_at) / Fold change /veh PIWIL2 (11732686_x_at) / RFU ORM1 (11744905_x_at) / Fold change /veh ORM1 (11744905_x_at) / RFU CCDC152 (11743942_at) / Fold change /veh CCDC152 (11743942_at) / RFU ECM1 (11717891_a_at) / Fold change /veh ECM1 (11717891_a_at) / RFU IL23R (11748794_a_at) / Fold change /veh IL23R (11748794_a_at) / RFU TNFAIP8L3 (11732012_x_at) / Fold change /veh TNFAIP8L3 (11732012_x_at) / RFU MBOAT4 (11741988_at) / Fold change /veh MBOAT4 (11741988_at) / RFU 11764193_at / Fold change /veh 11764193_at / RFU TMEM53 (11763286_at) / Fold change /veh TMEM53 (11763286_at) / RFU MAGEB2 (11727129_at) / Fold change /veh MAGEB2 (11727129_at) / RFU TMEM200A (11744735_a_at) / Fold change /veh TMEM200A (11744735_a_at) / RFU CCDC152 (11751479_a_at) / Fold change /veh CCDC152 (11751479_a_at) / RFU FAM211A (11726209_a_at) / Fold change /veh FAM211A (11726209_a_at) / RFU RGS16 (11746705_a_at) / Fold change /veh RGS16 (11746705_a_at) / RFU VCAN (11755009_s_at) / Fold change /veh VCAN (11755009_s_at) / RFU RHOB (11743442_s_at) / Fold change /veh RHOB (11743442_s_at) / RFU RGS16 (11720943_a_at) / Fold change /veh RGS16 (11720943_a_at) / RFU RGS16 (11720944_at) / Fold change /veh RGS16 (11720944_at) / RFU, VPS4B / Fold change vs veh, VPS4B / RFU, CREB1 / Fold change vs veh, CREB1 / RFU, DNAJC13 / Fold change vs veh, DNAJC13 / RFU, GNAQ / Fold change vs veh, GNAQ / RFU, CDK5R1 / Fold change vs veh, CDK5R1 / RFU, ZRANB3 / Fold change vs veh, ZRANB3 / RFU, CUL4A / Fold change vs veh, CUL4A / RFU, CCNY / Fold change vs veh, CCNY / RFU, UFL1 / Fold change vs veh, UFL1 / RFU, COG3 / Fold change vs veh, COG3 / RFU, DIAPH2 / Fold change vs veh, DIAPH2 / RFU, SKA2 / Fold change vs veh, SKA2 / RFU, AFF3 / Fold change vs veh, AFF3 / RFU, LMF1 / Fold change vs veh, LMF1 / RFU, IPO11 / Fold change vs veh, IPO11 / RFU, DFFB / Fold change vs veh, DFFB / RFU, FOXP1 / Fold change vs veh, FOXP1 / RFU, CARD8 / Fold change vs veh, CARD8 / RFU, STRN3 / Fold change vs veh, STRN3 / RFU, ADK / Fold change vs veh, ADK / RFU, RASSF2 / Fold change vs veh, RASSF2 / RFU, WIPF1 / Fold change vs veh, WIPF1 / RFU, LARP1B / Fold change vs veh, LARP1B / RFU, RASA1 / Fold change vs veh, RASA1 / RFU, RB1 / Fold change vs veh, RB1 / RFU, PPFIA1 / Fold change vs veh, PPFIA1 / RFU, MAT2A / Fold change vs veh, MAT2A / RFU, CCT5 / Fold change vs veh, CCT5 / RFU, WDR92 / Fold change vs veh, WDR92 / RFU, CUX1 / Fold change vs veh, CUX1 / RFU, TTC7A / Fold change vs veh, TTC7A / RFU, TMEM135 / Fold change vs veh, TMEM135 / RFU, DEPTOR / Fold change vs veh, DEPTOR / RFU, CPM / Fold change vs veh, CPM / RFU, DNAJB6 / Fold change vs veh, DNAJB6 / RFU, CACNA2D3 / Fold change vs veh, CACNA2D3 / RFU, DTX4 / Fold change vs veh, DTX4 / RFU, TFCP2 / Fold change vs veh, TFCP2 / RFU, GMCL1 /// GMCL1P1 / Fold change vs veh, GMCL1 /// GMCL1P1 / RFU, AEBP2 / Fold change vs veh, AEBP2 / RFU, SNHG1 /// SNORD22 /// SNORD25 /// SNORD26 /// SNORD27 /// SNORD28 /// SNORD29 /// SNORD31 / Fold change vs veh, SNHG1 /// SNORD22 /// SNORD25 /// SNORD26 /// SNORD27 /// SNORD28 /// SNORD29 /// SNORD31 / Fold change (Aza/veh), C12orf56 (ProbeSet 11735607_a_at) / Fold change (ACY-1035/veh), C12orf56 (ProbeSet 11735607_a_at) / Fold change (Aza/veh), FGFR1OP (ProbeSet 11751329_s_at) / Fold change (ACY-1035/veh), FGFR1OP (ProbeSet 11751329_s_at) / Fold change (Aza/veh), VPS36 (ProbeSet 11739960_a_at) / Fold change (ACY-1035/veh), VPS36 (ProbeSet 11739960_a_at) / RFU SYPL1 (11715823_x_at) / Fold change /veh SYPL1 (11715823_x_at) / RFU IGFBP7 (11715501_s_at) / Fold change /veh IGFBP7 (11715501_s_at) / RFU REEP3 (11722064_at) / Fold change /veh REEP3 (11722064_at) / RFU IGLL1 (11728026_x_at) / Fold change /veh IGLL1 (11728026_x_at): dose or concentration left out as unconfirmed. As to conditions: MV-4-11 cells, 48 hours. It is filed as cell-based, human.

For the compound `Nc1ccc(-c2cccs2)cc1NC(=O)c1ccc2c(c1)cc(C1CC1)n2CCN1CCOCC1` [ACY-1035], the “Fold change /veh VPS37D (11726825_at)” value is reported as 1.08.
